How the values were obtained:
[1] = biological target: T1, Human immunodeficiency virus type 1 integrase (Human immunodeficiency virus 1, UniProt Q7ZJM1); experiment: Inhibition of HIV1 integrase assessed as inhibition of strand transfer activity by 32P-labelled assay
[2] = biological target: T1, Human immunodeficiency virus type 1 integrase
Description: Inhibition of HIV1 integrase assessed as inhibition of 3'-end processing by 32P-labelled assay

[3] = biological target: Human immunodeficiency virus type 1 integrase (Human immunodeficiency virus 1) (UniProt Q7ZJM1); experiment: Selectivity index, ratio of IC50 for HIV1 integrase 3'-end processing to IC50 for HIV1 integrase strand transfer activity
Chain of Human immunodeficiency virus type 1 integrase (Human immunodeficiency virus 1) (Q7ZJM1 as listed by the source): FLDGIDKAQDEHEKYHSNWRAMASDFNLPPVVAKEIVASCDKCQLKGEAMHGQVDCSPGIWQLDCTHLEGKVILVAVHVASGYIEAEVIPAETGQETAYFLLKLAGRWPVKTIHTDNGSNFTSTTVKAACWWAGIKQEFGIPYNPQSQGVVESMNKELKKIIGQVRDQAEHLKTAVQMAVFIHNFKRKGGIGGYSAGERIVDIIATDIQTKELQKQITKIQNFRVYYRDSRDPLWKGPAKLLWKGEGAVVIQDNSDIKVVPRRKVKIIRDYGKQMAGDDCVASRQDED

T1 sequence (Q7ZJM1 whole entry): as the sequence (Q7ZJM1 as listed by the source) above

IC50 [1] [µM] | IC50 [2] [µM] | Ratio IC50 [3] | SMILES
0.7 | 2 | – | O=C(Nc1ccc(S(=O)(=O)Nc2cccc(Br)c2)cc1)c1cc(O)c(O)c(O)c1
12 | 16 | – | O=C(/C=C/c1ccc(O)c(O)c1)Nc1ccc(S(=O)(=O)Nc2ccccc2)cc1
1.6 | > 10 | – | CC(=O)Oc1cc(C(=O)Nc2ccc(S(=O)(=O)Nc3ccccc3C)cc2)cc(OC(C)=O)c1OC(C)=O
1.6 | 8 | – | CC(=O)Oc1cc(C(=O)Nc2ccc(S(=O)(=O)Nc3ccccc3)cc2)cc(OC(C)=O)c1OC(C)=O
8 | 8 | – | Cc1ccc(NS(=O)(=O)c2ccc(NC(=O)c3cc(O)c(O)c(O)c3)cc2)cc1C
2.5 | 3 | – | CCCCc1ccc(NS(=O)(=O)c2ccc(NC(=O)c3cc(O)c(O)c(O)c3)cc2)cc1
1.5 | 4 | – | O=C(Nc1ccc(S(=O)(=O)Nc2ccc(F)c(F)c2)cc1)c1cc(O)c(O)c(O)c1
50 | 100 | – | O=C(Nc1ccc(S(=O)(=O)Nc2ccccc2)cc1)c1ccc(O)c(O)c1
0.9 | 7 | – | O=C(Nc1ccc(S(=O)(=O)Nc2ccc(F)cc2)cc1)c1cc(O)c(O)c(O)c1
1.3 | 6 | – | CCOc1ccc(NS(=O)(=O)c2ccc(NC(=O)c3cc(O)c(O)c(O)c3)cc2)cc1
1.7 | 5 | – | O=C(Nc1ccc(S(=O)(=O)Nc2ccc(Cl)c(Cl)c2)cc1)c1cc(O)c(O)c(O)c1
2 | 7 | – | O=C(Nc1ccc(S(=O)(=O)NCc2ccc(F)cc2)cc1)c1cc(O)c(O)c(O)c1
2 | 5 | – | O=C(Nc1ccc(S(=O)(=O)NCc2ccc(Cl)cc2)cc1)c1cc(O)c(O)c(O)c1
0.7 | 3 | – | O=C(Nc1ccc(S(=O)(=O)Nc2ccc(Br)cc2)cc1)c1cc(O)c(O)c(O)c1
2 | 22 | 11 | NS(=O)(=O)c1ccc(NC(=O)c2cc(O)c(O)c(O)c2)cc1
4.5 | 5 | – | COc1ccc(NS(=O)(=O)c2ccc(NC(=O)c3cc(O)c(O)c(O)c3)cc2)cc1
2 | 7 | – | Cc1ccccc1NS(=O)(=O)c1ccc(NC(=O)c2cc(O)c(O)c(O)c2)cc1
2 | 6 | – | O=C(Nc1ccc(S(=O)(=O)Nc2ccc(Cl)cc2)cc1)c1cc(O)c(O)c(O)c1
3 | 7 | – | O=C(Nc1ccc(S(=O)(=O)Nc2ccc(F)c(F)c2F)cc1)c1cc(O)c(O)c(O)c1
3 | 4 | – | O=C(Nc1ccc(S(=O)(=O)Nc2ccc([N+](=O)[O-])cc2)cc1)c1cc(O)c(O)c(O)c1
1.5 | 7 | – | O=C(Nc1ccc(S(=O)(=O)Nc2ccccc2)cc1)c1cc(O)c(O)c(O)c1
2.5 | 8 | – | Cc1cc(C)cc(NS(=O)(=O)c2ccc(NC(=O)c3cc(O)c(O)c(O)c3)cc2)c1
